Data from patent publication US20070099217A1, “Method for stress evaluation” (priority 2005, published 2007).

Legend:
[1] = test system: promoter region of Per1 gene; test: luciferase assay of Per1 promoter constructs in NIH3T3 cells with dexamethazone; assay type: cell-based; details: dexamethazone 0.1 μM, 36 hours after transfection
Experimental: The second step was luciferase assay to investigate what part of the promoter region of Per1 is associated with stress response.
Luciferase is an enzyme protein that catalyzes bioluminescence. It can be used to estimate the level at which the expression of a specific gene is induced in the following manner. First, a recombinant gene is prepared in which the promoter region of a specific gene is joined to a gene that codes luciferase. Second, the recombinant gene is incorporated into cultured cells. Third, the gene is allowed to express so that the luciferase is allowed to express. Fourth, the intensity of bioluminescence due to luciferase is determined to obtain the level at which luciferase expresses.
An experiment was carried out based on the foregoing principle. It involves preparation of several kinds of DNA differing in the length of the promoter region of Per1 and determination of the expression level of Per1 in the presence of dexamethazone. […] Incidentally, dexamethazone is synthetic glucocorticoid. It is known that the amount of glucocorticoid in blood increases when a living organism experiences stress.
The procedure of the experiment is outlined below. • (1) The first step is to prepare DNAs (P1F, P1K, and P1S), the first one having the entire length of the promoter region of Per1 gene and the second and third ones having the partial length of the promoter region of Per1 gene, with the upstream side cut off. […] The subcultured cells are collected and dissolved 36 hours after transfection. • (4) The fourth step is to prepare a solution from the dissolved cells and measurement of the luminescence intensity by means of Dual Luciferase Assay System (from Promega). […]
FIG. 4C is a graph showing the results of luciferase assay. The abscissa (Relative Luciferase Activity) represents the intensity of luminescence in terms of relative value (%) compared with the intensity of luminescence assigned as 100 of the cultured cells incorporated with the entire length of the promoter region of Per1 gene.
“P1F” denotes the intensity of luminescence from cultured cells incorporated with the entire length of the promoter region of Per1 gene. “P1K” denotes the intensity of luminescence from cultured cells incorporated with the partial length of 3806 bases upstream from the transcription starting region of Per1 gene. “P1S” denotes the intensity of luminescence from cultured cells incorporated with the partial length of 2369 bases upstream from the transcription starting region of Per1 gene. “Vector” denotes the intensity of luminescence from cultured cells (control) incorporated with a blank vector. […] “Dex” and “EtOH” respectively denote the intensity of luminescence from a sample containing dexamethazone and a sample (control) containing ethanol. […]

[2] = molecular target: glucocorticoid receptor (GR) joining to GRE resembling sequence of Per1 gene (Mus musculus, UniProt P06537); details: NIH3T3 cells, 1 hr after treatment with dexamethazone, anti-GR antibody
Experimental: First, NIH3T3 cells were treated with dexamethazone to induce the expression of mPer1 gene. The cells were given formaldehyde to fix the binding of protein and chromatin DNA. The chromatin DNA was fragmented by sonication and the resulting fragments underwent immunoprecipitation with anti-GR antibody. The resulting precipitates (as a composite of anti-GR antibody, GR, and chromatin DNA joining to GR) were recovered. The recovered precipitates were heated to remove the DNA-protein crosslinking. The desired sequence was amplified by PCR and the PCR product was identified by electrophoresis.
In other words, the primer was so designed as to specifically amplify the region near the two GRE resembling sequences.
In FIG. 5B, “IP: α-GR” indicates the desired sequence detected by semi-quantitative RT-PCR after immunoprecipitation by means of anti-GR antibody. “IP: αa-normal rabbit IgG” indicates the sequence (control) detected from immunoprecipitation by means of rabbit IgG. In addition, “input” indicates the desired sequence (control) detected by semi-quantitative RT-PCR without immunoprecipitation. “ChIP primer” in the lowermost row indicates the sequence of the primer used for semi-quantitative RT-PCR or the desired sequence which has been amplified. […]

Per1 gene = test: expression of clock genes in liver of mouse given corticosterone (quantitative real time RT-PCR); assay type: in vivo
Experimental: This example is intended to investigate the amount of expression of Per1 in a mouse which was given corticosterone.
A mouse was given a prescribed amount of corticosterone, and one hour later, it had its liver extracted. The collected liver was homogenized for quantitative real time RT-PCR in the same way as in Example 2, and the amount of expression of clock genes was determined.
The abscissa represents the dosage (mg/kg) of corticosterone per 1 kg of the mouse's weight. “PBS” denotes the control which was given a phosphate buffer solution in place of corticosterone. “fold induction” on the ordinate represents the amount of expression of Per1 gene (in terms of a relative value, with the value for PBS being 1).
The abscissa represents each clock gene. “fold induction” on the ordinate represents the amount of expression of each clock gene in terms of a relative value, with the value for PBS being 1.

glucocorticoid receptor (GR) joining to GRE resembling sequence of Per1 gene, sequence (P06537 whole entry): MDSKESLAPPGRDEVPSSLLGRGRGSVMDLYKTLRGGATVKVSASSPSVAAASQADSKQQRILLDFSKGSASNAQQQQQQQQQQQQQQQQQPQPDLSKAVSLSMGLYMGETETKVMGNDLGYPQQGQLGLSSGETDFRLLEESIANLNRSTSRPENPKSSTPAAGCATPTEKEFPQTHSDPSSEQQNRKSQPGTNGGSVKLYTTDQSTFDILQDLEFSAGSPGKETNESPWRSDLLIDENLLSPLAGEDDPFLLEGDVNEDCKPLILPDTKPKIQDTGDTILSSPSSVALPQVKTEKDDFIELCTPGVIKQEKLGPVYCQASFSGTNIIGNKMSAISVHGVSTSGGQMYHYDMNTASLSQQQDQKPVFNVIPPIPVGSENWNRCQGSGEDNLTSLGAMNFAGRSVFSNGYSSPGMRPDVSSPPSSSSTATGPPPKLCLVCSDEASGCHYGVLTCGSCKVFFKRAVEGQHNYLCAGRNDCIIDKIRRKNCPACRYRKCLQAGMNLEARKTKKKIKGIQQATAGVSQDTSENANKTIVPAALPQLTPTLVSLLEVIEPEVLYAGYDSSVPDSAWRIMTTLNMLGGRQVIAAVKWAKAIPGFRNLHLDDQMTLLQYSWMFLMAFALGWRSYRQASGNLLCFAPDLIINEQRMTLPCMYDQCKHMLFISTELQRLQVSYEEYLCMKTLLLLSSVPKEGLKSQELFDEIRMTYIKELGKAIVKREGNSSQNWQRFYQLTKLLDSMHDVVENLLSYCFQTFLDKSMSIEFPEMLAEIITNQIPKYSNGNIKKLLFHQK

Compound	intensity of luminescence, P1FpM ([1]; P1F with GRE resembling sequence mutated in its downstream, FIG. 4D)	intensity of luminescence, P1FdM ([1]; P1F with GRE resembling sequence mutated in its upstream, FIG. 4D)	Relative Luciferase Activity (intensity of luminescence), P1K ([1]; P1K promoter (3806 bases upstream, two GRE resembling sequences), vs EtOH, FIG. 4C)	Relative Luciferase Activity (intensity of luminescence), P1S ([1]; P1S promoter (2369 bases upstream, one GRE resembling sequence), vs EtOH, FIG. 4C)	detection of dGRE and pGRE sequences by semi-quantitative RT-PCR after immunoprecipitation ([2]; FIG. 5B)	amount of dGRE and pGRE DNA amplified (%input) by quantitative real time RT-PCR after immunoprecipitation ([2]; FIG. 5C)	amount of expression of each clock gene (fold induction, PBS being 1) (Per1 gene; one hour after corticosterone 10 mg/kg, FIG. 7B)	amount of expression of Per1 gene (fold induction, PBS being 1) versus dosage (Per1 gene; one hour after corticosterone, dosage in mg/kg, FIG. 7A)
C[C@@H]1C[C@H]2[C@@H]3CCC4=CC(=O)C=C[C@]4(C)[C@@]3(F)[C@@H](O)C[C@]2(C)[C@@]1(O)C(=O)CO [dexamethazone]	high intensity of luminescence	a little lower intensity of luminescence	high intensity of luminance	certain intensity of luminance	the desired band was detected	greatly amplifies	–	–
C[C@]12C[C@H](O)[C@H]3[C@@H](CCC4=CC(=O)CC[C@@]43C)[C@@H]1CC[C@@H]2C(=O)CO [corticosterone]	–	–	–	–	–	–	increases the amount of expression of only Per1 gene among clock genes	increases as the dosage of corticosterone increases
